Data on one compound can be found in article PMC12294420, “Phytochemical Characterization, Bioactivities, and Nanoparticle-Based Topical Gel Formulation Development from Four Mitragyna speciosa Varieties” (Gels, 2025).

Test [1] addresses T1, bovine testis hyaluronidase (Bos taurus, UniProt Q2YDK3).
T1 construct: gene SPAM1; commercial native testis preparation (Sigma-Aldrich)
T1 sequence (Q2YDK3 36-553): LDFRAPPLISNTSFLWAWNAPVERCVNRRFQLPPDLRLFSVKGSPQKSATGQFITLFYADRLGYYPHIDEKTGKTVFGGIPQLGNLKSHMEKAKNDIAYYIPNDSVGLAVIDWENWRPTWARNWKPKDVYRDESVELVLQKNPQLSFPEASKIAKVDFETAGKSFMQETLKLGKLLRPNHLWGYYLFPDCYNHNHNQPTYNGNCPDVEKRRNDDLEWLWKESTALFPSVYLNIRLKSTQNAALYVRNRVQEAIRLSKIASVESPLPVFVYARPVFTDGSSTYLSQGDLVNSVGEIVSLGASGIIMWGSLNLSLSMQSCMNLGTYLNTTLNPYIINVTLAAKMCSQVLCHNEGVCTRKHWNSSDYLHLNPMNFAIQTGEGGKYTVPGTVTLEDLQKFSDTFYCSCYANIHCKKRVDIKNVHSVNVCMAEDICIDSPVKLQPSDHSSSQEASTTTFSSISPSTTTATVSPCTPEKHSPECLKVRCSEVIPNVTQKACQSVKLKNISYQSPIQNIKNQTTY
The test is described as follows: turbidimetric hyaluronic acid degradation assay, […] nm. The format is biochemical. The note with it: read-out: % inhibition at 1 mg/mL.

Test [2] concerns the target T2, porcine pancreatic elastase (Sus scrofa, UniProt P00772).
T2 construct: gene CELA1; commercial native pancreatic enzyme (Sigma-Aldrich)
The test is described as follows: Suc-Ala-Ala-Ala-pNA hydrolysis, […] nm kinetic. The format is biochemical. The note with it: read-out: % inhibition at 1 mg/mL.

T2 sequence (P00772 27-266): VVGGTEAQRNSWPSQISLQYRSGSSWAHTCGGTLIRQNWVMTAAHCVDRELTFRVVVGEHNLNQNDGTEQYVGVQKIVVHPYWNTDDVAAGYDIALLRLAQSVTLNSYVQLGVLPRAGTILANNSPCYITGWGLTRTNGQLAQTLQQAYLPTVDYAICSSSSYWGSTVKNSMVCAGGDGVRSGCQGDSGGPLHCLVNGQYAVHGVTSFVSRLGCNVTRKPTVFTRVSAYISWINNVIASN

Consider `CC[C@@H]1CN2CCc3c([nH]c4cccc(OC)c34)[C@@H]2C[C@@H]1/C(=C\OC)C(=O)OC` [mitragynine], for which the inhibition at 1000 µg/mL in test [1] stood at 83.3 ± 1.35%; in test [2], 54.5 ± 1.5%.
